# Test results published in publication PMC6753678, “Fueling Open Innovation for Malaria Transmission-Blocking Drugs: Hundreds of Molecules Targeting Early Parasite Mosquito Stages” (Frontiers in Microbiology, 2019).
# Where two headings read alike, the source gives them in different places.
# How the values were obtained:
# [1] = tested on: 3D7-strain P. falciparum asexual parasites; assay: P. falciparum asexual growth inhibition assay (Pf GIA); type: cell-based, Plasmodium falciparum; conditions: dose response confirmation; read-out: Pf asexual growth inhibition assays IC50
# Outline: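 0.25% parasitemia, 2% Hct, RPMI/HEPES/hypoxanthine/5% Albumax; compound dose response, 72 h, 37°C, 5% CO2, 5% O2, 90% N2. Freeze-thaw, then LDH assay, A650. % inhibition vs chloroquine (50 μM)/DMSO, mean of 3 independent runs.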
# HepG2 cells = assay: HepG2 cytotoxicity assay; conditions: for IC50: read-out: HepG2 cytotoxicity assay IC50, dose response confirmation; for Pb ODA (this manuscript) HepG2 cytoxicity: HepG2 cytotoxicity listed with the Pb ODA data set (this manuscript)
# Outline: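 Here viability after a 48 h compound incubation (37°C, humidified 5% CO2) is measured by fluorescence and expressed as percent inhibition, with doxorubicin at 50 μM and DMSO as the bounding controls.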
# [2] = tested on: P. berghei ookinete development; conditions: for % inhibition, Replicate A / % inhibition, Replicate B: primary screen at 1 μM
# [3] = read-out: Pb ODA IC50, this manuscript
# [4] = read-out: Pb Ookinete development assay IC50, dose response confirmation
# [5] = read-out: Pb ODA (this manuscript) IC50, P. berghei ookinete development assay, this manuscript
# [6] = unified HepG2 value across the three screens
Structure (SMILES),IC50 [1],"HepG2 cytoxicity (Pb ODA, this manuscript) (HepG2 cells; HepG2, this manuscript)",Unified cytotox (HepG2 cells; HepG2 values of the three screens unified),IC50 (HepG2 cells),"Is compound selective in assay? Pb ODA active? ([2]; 1: YES, 0: NO)","% inhibition, Replicate A [2]","% inhibition, Replicate B [2]","IC50 [2, 3]","IC50 [2, 4]",Pb ODA (this manuscript) HepG2 cytoxicity (HepG2 cells),Is compound selective in assay? Pb ODA active? [2],"IC50 [2, 5]",Unified cytotox (HepG2 cells; [6])
COc1ccc2nccc([C@@H](O)CN3CCC(NCc4cc5ccc(C#N)cc5[nH]4)CC3)c2c1.O=C(O)C(=O)O [TCMDC-140696],168 nM,1.55 µM,1.55 µM,1550 nM,0 (0: NO),54.58%,89.62%,1880 nM,1880 nM,,,,
Cc1[nH]c(C)c(-c2ccc(C#Cc3ccc(F)cc3F)cc2)c(=O)c1Br [TCMDC-134692],16 nM,,,100000 nM,,89.67%,88.19%,,399 nM,100.00 µM,1 (key: 1: YES; 0: NO),400 nM,
CCNC(=O)Nc1ccc(-c2cnc(N)c(-c3nc4ccc(OC)cc4[nH]3)c2)cc1 [TCMDC-135321],364 nM,,,6680 nM,0 (0: NO),44.00%,70.87%,2330 nM,2330 nM,,,,6.68 µM
O=C(O)C(F)(F)F.O=c1[nH]ccc2nc(N[C@@H]3CCCNC3)nc(Nc3ccc(S(=O)(=O)N4CCOCC4)cc3)c12 [TCMDC-135038],347 nM,,,45700 nM,1 (1: YES),53.41%,58.16%,1550 nM,1540 nM,,,,45.71 µM
Cc1noc(C)c1-c1ccc2c(Nc3ccc(C#N)cc3)c(C(N)=O)cnc2c1 [TCMDC-136029],609 nM,,,69200 nM,,61.24%,98.78%,,3830 nM,69.18 µM,1 (key: 1: YES; 0: NO),3830 nM,
COc1ccc2nc(-c3cc(-c4ccc(NC(C)=O)cc4)cnc3N)[nH]c2c1 [TCMDC-135365],1280 nM,,,12000 nM,1 (1: YES),88.78%,104.70%,440 nM,442 nM,,,,12.02 µM
CC1(C)NC(N)=NC(=N)N1OCOc1ccc(Cl)cc1.Cl [TCMDC-131734],< 0.2 nM,,,75.9 nM,,89.86%,40.05%,,2620 nM,0.0759 µM,0 (key: 1: YES; 0: NO),2620 nM,
CC1CN(Cc2cccc(F)c2)CCN1c1ccc(NC(=O)c2cccs2)cc1.O=C(O)C(F)(F)F (stereo not shown) [TCMDC-135009],242 nM,,,120000 nM,,59.80%,66.69%,,420 nM,120.23 µM,1 (key: 1: YES; 0: NO),,
CC1CN(Cc2cccc(C#N)c2)CCN1c1ccc(NC(=O)c2cccs2)cc1.O=C(O)C(F)(F)F (stereo not shown) [TCMDC-134969],78 nM,,,3020 nM,,50.06%,40.18%,,1640 nM,3.02 µM,0 (key: 1: YES; 0: NO),,
CC[C@@]1(O)C(=O)OCc2c1cc1n(c2=O)Cc2c-1nc1cc3c(cc1c2CN1CCOCC1)OCO3.O=C(O)C(F)(F)F [TCMDC-131876],7 nM,,,470 nM,0 (0: NO),79.37%,70.89%,1250 nM,1250 nM,,,,0.47 µM
